We go through 1 compound from patent US20200405699A1, “TREATING SICKLE CELL DISEASE WITH A PYRUVATE KINASE R ACTIVATING COMPOUND” (FORMA Therapeutics, Inc., priority 2018, published 2020).

Each structure is given as a SMILES string.

For data set [1], the target named is wt-PKR (Homo sapiens, UniProt P30613). Nature of the data set: Enzyme assay of Example 3 (kinetic parameters, activation), wt-PKR. The class given is biochemical. As for the experimental part: Tests were conducted in the presence and absence of fructose-1,6-bisphosphate (FBP), a known allosteric activator of PKR.
For data set [2], the system named is 2,3-DPG levels in whole blood. Put plainly: PK/PD study in wild type mice, 2,3-DPG levels in blood. The note with it: oral QD x7, doses ≥120 mg/kg (120 and 240 mg/kg), blood 24 h after dosing. It is filed as in vivo, Balb/c mice. As for the experimental part:
Two pharmacokinetic (PK)/phamacodynamic (PD) studies were conducted in Balb/c mice that were administered Compound 1 once daily by oral gavage (formulated in 10% Cremophor EL/10% PG/80% DI water) for 7 days (QD×7) at doses of 0 (vehicle), 3.75, 7.5, 15, 30, 60 mg/kg (Study 1); 0 (vehicle), 7.5, 15, 30, 60, 120, or 240 mg/kg (Study 2). On the 7th day, whole blood was collected 24 hours after dosing and snap frozen. Samples were later thawed and analyzed by LC/MS for 2,3-DPG and ATP levels.

Data set [3] is described as follows: SAD/MAD study in healthy volunteers, safety. It is filed as in vivo, human. The note with it: SAD and MAD cohorts of healthy volunteers. The source says: This is a first-in-human (FIH), Phase 1 study of Compound 1 that will characterize the safety, PK, and PD of Compound 1 after a single dose and after repeated dosing first in healthy adult volunteers and then in adolescents or adults with sickle cell disease. Initially, a dose range of Compound 1 in single ascending dose (SAD) escalation cohorts will be explored in healthy subjects. Enrollment of healthy subjects into 2-week multiple ascending dose (MAD) escalation cohorts will be initiated once the safety and PK from at least two SAD cohorts is available to inform the doses for the 2-week MAD portion of the study. The MAD cohorts will then run in parallel to the single dose cohorts. A single dose cohort is planned to understand food effects (FE) on the PK of Compound 1. […] Multiple dose studies in SCD subjects will then be initiated upon completion of MAD studies in healthy volunteers. Compound 1 will be administered in 25 mg and 100 mg tablets delivered orally. Four healthy SAD cohorts were evaluated at doses of 200, 400, 700, and 1000 mg, and four healthy MAD cohorts received 200 to 600 mg total daily doses for 14 days at QD or BID dosing (100 mg BID, 200 mg BID, 300 mg BID, and 400 mg QD). In the food effect (FE) cohort, 10 healthy subjects received 200 mg of Compound 1 QD with and without food.

Broadly, the AC50 is the concentration giving half of the maximal activity seen.

Chain of wt-PKR (P30613 whole entry): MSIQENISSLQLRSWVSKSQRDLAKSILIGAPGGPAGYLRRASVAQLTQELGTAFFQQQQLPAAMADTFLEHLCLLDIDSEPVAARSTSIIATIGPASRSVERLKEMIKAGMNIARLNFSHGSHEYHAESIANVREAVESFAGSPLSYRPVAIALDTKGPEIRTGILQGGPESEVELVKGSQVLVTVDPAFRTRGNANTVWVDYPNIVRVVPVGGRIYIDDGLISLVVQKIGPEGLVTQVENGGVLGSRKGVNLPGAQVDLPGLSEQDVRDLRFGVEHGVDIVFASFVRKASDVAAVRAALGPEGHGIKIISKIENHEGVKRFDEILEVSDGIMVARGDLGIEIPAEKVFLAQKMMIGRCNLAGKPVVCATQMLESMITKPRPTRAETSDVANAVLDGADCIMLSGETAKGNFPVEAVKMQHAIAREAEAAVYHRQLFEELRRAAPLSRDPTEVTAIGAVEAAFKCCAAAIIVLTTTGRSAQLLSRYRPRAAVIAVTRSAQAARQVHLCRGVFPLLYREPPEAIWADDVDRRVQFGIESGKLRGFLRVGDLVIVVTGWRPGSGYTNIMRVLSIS

On to `O=C([C@H](CO)c1ccccc1)N1CC2=C(C1)CN(S(=O)(=O)c1cnc3c(c1)OCCO3)C2` (single isomer, unassigned) [Compound 1], for which the “Vmax (normalized)” value in data set [1] (30 μM FBP, 2 μM Compound 1, normalized within row) is recorded as 1.16; in data set [1] (No FBP, 2 μM Compound 1, normalized to 1.00 relative to other values in same row), 1.14. Besides, in data set [1] (PEP at or below Km), the AC50 is less than 50 nM. Besides, in data set [1] (PEP at or below Km, rate of ATP formation), the “Maximum-fold Activation” value is given as less than 2.0. The “Reduction of 2,3-DPG levels” value in data set [2] is greater than 30%. The “Serious adverse events / AEs leading to withdrawal” value in data set [3] is “No serious adverse events (SAEs) or AEs leading to withdrawal were reported”.
